Measured values from US3989466.

Columns and labels:
[1] = not told for nicotinamide; caffeine D in same system by direct partitioning in a separatory funnel with UV absorbance

Structure (SMILES): Oc1ccc(N=Nc2ccccc2)cc1
- partition coefficient (concentration ratio) (not told): ca. 0.50 concentration ratio (mg/ml per mg/ml)

Structure (SMILES): NC(=O)c1cccnc1
- partition coefficient (concentration ratio) [1]: 0.19 concentration ratio (mg/ml per mg/ml)

Structure (SMILES): CC1(C)Nc2cccc3c(N=Nc4ccc(N=Nc5ccccc5)c5ccccc45)ccc(c23)N1
- partition coefficient (concentration ratio) (not told): ca. 2.0 concentration ratio (mg/ml per mg/ml)
